Where two headings read alike, the source gives them in different places.
Legend:
RXFP2 = biological target: T1, RXFP2 (Homo sapiens, UniProt Q8WXD0); assay: HTRF cAMP assay in HEK-RXFP2 cells with INSL3 B dimer antagonist co-treatment; type: cell-based; conditions: antagonist 10 μM-[…], IBMX 200 μM
T1 construct: expressed in transfected cells
Procedure: Previous publications have characterized the INSL3/RXFP2 binding model, showing that the B-chain of INSL3 binds with high affinity to the extracellular leucine-rich repeat (LRR) domain of RXFP2. To determine if the RXFP2 agonists interact with the receptor in a similar manner, an INSL3 antagonist (INSL3 B dimer) was used to co-treat HEK-RXFP2 cells with RXFP2 agonists or INSL3 and measure induction of cAMP using the HTRF assay. […] The HTRF cAMP assay was carried out in the presence of 200 μM IBMX to amplify the cAMP signal. For this assay, cells were seeded in 96-well flat-bottom opaque plates at 7,500 cells/well in 60 μL/well of serum-free DMEM medium and allowed to attach overnight at 37° C. and 5% CO2. The next morning, cells were treated with 2 μL of INSL3 B dimer antagonist (10 μM-0.21 nM) and 2 μL of 30 nM INSL3 or 4 μL of vehicle (serum-free DMEM+IBMX). Cells were also treated with 1 μL/well of 0.28 μM compound, 2 μM forskolin, or DMSO vehicle. Cells were incubated for 1 hour at 37° C., 5% CO2, after which kit cAMP-d2 and anti-cAMP antibody were added as previously described. Plates were incubated for 1 hour at room temperature, and then the signal was read on a CLARIOstar plate reader (BMG Labtech, Germany).

[1] = Pharmacokinetic study in female mice (plasma, liver, bone); type: in vivo, female C57/BL6 mice
Excerpt: FIG. 24A depicts the plasma profile. FIG. 24B depicts the liver profile and FIG. 24C depicts the bone profiles. The actual concentration (ng/g) is the detected value (ng/mL) multiplied by 4. […] 40% HP-b-CD-75% PEG300. Three mice were used per time point. Results are expressed as the mean SEM.
2-hydroxypropyl-beta-cyclodextrin (HPBCD).
FIG. 24A depicts the plasma profile. FIG. 24B depicts the liver profile and FIG. 24C depicts the bone profiles. The actual concentration (ng/g) is the detected value (ng/mL) multiplied by 4. […] 40% HP-b-CD-75% PEG300. Three mice were used per time point. Results are expressed as the mean±SEM.

[2] = tested on: trabecular bone of L3 vertebrae; assay: Bone anabolic study, microCT of L3 vertebrae; type: in vivo, C57BL/6J female mice; conditions: 10 mg/kg oral gavage every other day, 8 weeks, vs vehicle
[3] = bone, PO 10 mg/kg, one administration
[4] = liver, PO 10 mg/kg, one administration
[5] = plasma, PO 10 mg/kg, one administration

T1 sequence (Q8WXD0 whole entry): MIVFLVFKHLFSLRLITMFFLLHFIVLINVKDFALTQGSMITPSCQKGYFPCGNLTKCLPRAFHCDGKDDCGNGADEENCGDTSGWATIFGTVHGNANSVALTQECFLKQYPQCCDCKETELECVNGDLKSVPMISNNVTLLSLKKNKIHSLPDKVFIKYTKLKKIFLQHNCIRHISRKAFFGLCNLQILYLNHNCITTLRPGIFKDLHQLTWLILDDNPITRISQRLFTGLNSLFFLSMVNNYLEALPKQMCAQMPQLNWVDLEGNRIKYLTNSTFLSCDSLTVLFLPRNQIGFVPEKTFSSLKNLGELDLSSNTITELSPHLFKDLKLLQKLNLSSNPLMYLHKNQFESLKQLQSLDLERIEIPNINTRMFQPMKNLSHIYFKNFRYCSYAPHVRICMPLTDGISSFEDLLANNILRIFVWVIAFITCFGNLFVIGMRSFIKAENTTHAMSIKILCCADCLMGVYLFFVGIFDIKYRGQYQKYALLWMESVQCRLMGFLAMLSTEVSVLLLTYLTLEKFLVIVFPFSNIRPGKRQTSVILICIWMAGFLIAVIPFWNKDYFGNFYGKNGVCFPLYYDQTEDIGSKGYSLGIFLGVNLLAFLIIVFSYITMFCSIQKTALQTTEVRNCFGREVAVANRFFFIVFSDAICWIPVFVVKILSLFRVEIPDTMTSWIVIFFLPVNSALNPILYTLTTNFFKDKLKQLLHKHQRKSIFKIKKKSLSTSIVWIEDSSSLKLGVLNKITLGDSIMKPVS

## O=C1Nc2ccc(-c3cc(C(F)(F)F)cc(C(F)(F)F)c3)cc2C(=O)N2CCN(C(=O)COc3ccc(OC(F)(F)F)cc3I)C[C@@H]12 [Example 187, (S)-8-(3,5-bis(trifluoromethyl)phenyl)-2-(2-(2-iodo-4-(trifluoromethoxy)phenoxy)acetyl)-1,3,4,12a-tetrahydrobenzo[e]pyrazino[1,2-a][1,4]diazepine-6,12 (2H, 11H)-dione]
RXFP2
  effect of INSL3 B dimer antagonist on cAMP response induced by the compound: no effect
[1]; Table 10, IV 3 mg/kg
  Maximum serum concentration: 3.25 µg/mL
[1]; bone, IV 3 mg/kg
  AUCInf: 3687 ng·h/g
  AUClast: 3650 ng·h/g
[1]; [3]
  AUCInf: 2190 ng·h/g
  AUClast: 1897 ng·h/g
[1]; bone, PO (QD*3) 10 mg/kg
  AUCInf: 2573 ng·h/g
  AUClast: 2539 ng·h/g
[1]; female, C57/BL6, mouse, bone, iv, 3 mg/kg, IV 3 mg/kg
  Cmax: 1070 ng/g
[1]; female, C57/BL6, mouse, bone, po, 10 mg/kg, PO 10 mg/kg, one administration
  Cmax: 174 ng/g
[1]; female, C57/BL6, mouse, bone, po, 10 mg/kg, PO (QD*3) 10 mg/kg
  Cmax: 298 ng/g
[1]; female, C57/BL6, mouse, bone/plasma, iv, 3 mg/kg, IV 3 mg/kg, read-out: AUClast Ratio (Bone/Plasma)
  Kp: 1.14
[1]; female, C57/BL6, mouse, bone/plasma, iv, 3 mg/kg, IV 3 mg/kg, read-out: Cmax Ratio (Bone/Plasma)
  Kp: 0.419
[1]; female, C57/BL6, mouse, bone/plasma, po, 10 mg/kg, PO 10 mg/kg, one administration, read-out: AUClast Ratio (Bone/Plasma)
  Kp: 0.725
[1]; female, C57/BL6, mouse, bone/plasma, po, 10 mg/kg, PO 10 mg/kg, one administration, read-out: Cmax Ratio (Bone/Plasma)
  Kp: 0.475
[1]; female, C57/BL6, mouse, bone/plasma, po, 10 mg/kg, PO (QD*3) 10 mg/kg, read-out: AUClast Ratio (Bone/Plasma)
  Kp: 0.779
[1]; female, C57/BL6, mouse, bone/plasma, po, 10 mg/kg, PO (QD*3) 10 mg/kg, read-out: Cmax Ratio (Bone/Plasma)
  Kp: 0.766
[1]; female, C57/BL6, mouse, liver, iv, 3 mg/kg, IV 3 mg/kg
  Cmax: 28000 ng/g
[1]; female, C57/BL6, mouse, liver, po, 10 mg/kg, PO 10 mg/kg, one administration
  Cmax: 3210 ng/g
[1]; female, C57/BL6, mouse, liver, po, 10 mg/kg, PO (QD*3) 10 mg/kg
  Cmax: 3570 ng/g
[1]; female, C57/BL6, mouse, liver/plasma, iv, 3 mg/kg, IV 3 mg/kg, read-out: AUClast Ratio (Liver/Plasma)
  Kp: 8.3
[1]; female, C57/BL6, mouse, liver/plasma, iv, 3 mg/kg, IV 3 mg/kg, read-out: Cmax Ratio (Liver/Plasma)
  Kp: 10.9
[1]; female, C57/BL6, mouse, liver/plasma, po, 10 mg/kg, PO 10 mg/kg, one administration, read-out: AUClast Ratio (Liver/Plasma)
  Kp: 9.23
[1]; female, C57/BL6, mouse, liver/plasma, po, 10 mg/kg, PO 10 mg/kg, one administration, read-out: Cmax Ratio (Liver/Plasma)
  Kp: 8.78
[1]; female, C57/BL6, mouse, liver/plasma, po, 10 mg/kg, PO (QD*3) 10 mg/kg, read-out: AUClast Ratio (Liver/Plasma)
  Kp: 7.64
[1]; female, C57/BL6, mouse, liver/plasma, po, 10 mg/kg, PO (QD*3) 10 mg/kg, read-out: Cmax Ratio (Liver/Plasma)
  Kp: 9.18
[1]; female, C57/BL6, mouse, plasma, iv, 3 mg/kg, Table 10, IV 3 mg/kg, read-out: Area under the curve-AUCinf
  AUC(0-inf): 3200 ng·h/mL
[1]; female, C57/BL6, mouse, plasma, iv, 3 mg/kg, Table 10, IV 3 mg/kg, read-out: Area under the curve-AUClast
  AUC(0-t): 3190 ng·h/mL
[1]; female, C57/BL6, mouse, plasma, iv, 3 mg/kg, Table 10, IV 3 mg/kg, read-out: Concentration-C0
  C0: 3590 ng/mL
[1]; female, C57/BL6, mouse, plasma, iv, 3 mg/kg, Table 10, IV 3 mg/kg, read-out: Half life-t1/2 (converted)
  half-life: 6.56 h
[1]; female, C57/BL6, mouse, plasma, iv, 3 mg/kg, plasma, IV 3 mg/kg, read-out: AUCInf
  AUC(0-inf): 3200 ng·h/mL
[1]; female, C57/BL6, mouse, plasma, iv, 3 mg/kg, plasma, IV 3 mg/kg, read-out: AUClast
  AUC(0-t): 3190 ng·h/mL
[1]; female, C57/BL6, mouse, plasma, iv, 3 mg/kg, plasma, IV 3 mg/kg, read-out: C0
  C0: 3590 ng/mL
[1]; female, C57/BL6, mouse, plasma, iv, 3 mg/kg, plasma, IV 3 mg/kg, read-out: t1/2 (converted)
  half-life: 6.56 h
[1]; female, C57/BL6, mouse, plasma, po, 10 mg/kg, Table 10, POA single 10 mg/kg, read-out: Area under the curve-AUCinf
  AUC(0-inf): 2650 ng·h/mL
[1]; female, C57/BL6, mouse, plasma, po, 10 mg/kg, Table 10, POA single 10 mg/kg, read-out: Area under the curve-AUClast
  AUC(0-t): 2620 ng·h/mL
[1]; female, C57/BL6, mouse, plasma, po, 10 mg/kg, Table 10, POA single 10 mg/kg, read-out: Half life-t1/2 (converted)
  half-life: 3.89 h
[1]; female, C57/BL6, mouse, plasma, po, 10 mg/kg, Table 10, POB QD × 3, 10 mg/kg, read-out: Area under the curve-AUCinf
  AUC(0-inf): 3270 ng·h/mL
[1]; female, C57/BL6, mouse, plasma, po, 10 mg/kg, Table 10, POB QD × 3, 10 mg/kg, read-out: Area under the curve-AUClast
  AUC(0-t): 3260 ng·h/mL
[1]; female, C57/BL6, mouse, plasma, po, 10 mg/kg, Table 10, POB QD × 3, 10 mg/kg, read-out: Half life-t1/2 (converted)
  half-life: 5.88 h
[1]; female, C57/BL6, mouse, plasma, po, 10 mg/kg, plasma, PO 10 mg/kg, one administration, read-out: AUCInf
  AUC(0-inf): 2650 ng·h/mL
[1]; female, C57/BL6, mouse, plasma, po, 10 mg/kg, plasma, PO 10 mg/kg, one administration, read-out: AUClast
  AUC(0-t): 2620 ng·h/mL
[1]; female, C57/BL6, mouse, plasma, po, 10 mg/kg, plasma, PO 10 mg/kg, one administration, read-out: C0
  C0: 366 ng/mL
[1]; female, C57/BL6, mouse, plasma, po, 10 mg/kg, plasma, PO 10 mg/kg, one administration, read-out: t1/2 (converted)
  half-life: 3.89 h
[1]; female, C57/BL6, mouse, plasma, po, 10 mg/kg, plasma, PO (QD*3) 10 mg/kg, read-out: AUCInf
  AUC(0-inf): 3270 ng·h/mL
[1]; female, C57/BL6, mouse, plasma, po, 10 mg/kg, plasma, PO (QD*3) 10 mg/kg, read-out: AUClast
  AUC(0-t): 3260 ng·h/mL
[1]; female, C57/BL6, mouse, plasma, po, 10 mg/kg, plasma, PO (QD*3) 10 mg/kg, read-out: C0
  C0: 389 ng/mL
[1]; female, C57/BL6, mouse, plasma, po, 10 mg/kg, plasma, PO (QD*3) 10 mg/kg, read-out: t1/2 (converted)
  half-life: 5.88 h
[1]; female, C57/BL6, mouse, plasma, po, Table 10, POA single 10 mg/kg, read-out: Bioavailability-F
  bioavailability: 24.8%
[1]; female, C57/BL6, mouse, plasma, Table 10, IV 3 mg/kg, read-out: Mean residence time-MRTlast
  MRT last: 3.47 h
[1]; female, C57/BL6, mouse, plasma, Table 10, IV 3 mg/kg, read-out: Total clearance after IV administration-CLobs
  clearance: 15.6 mL/min/kg
[1]; female, C57/BL6, mouse, plasma, Table 10, IV 3 mg/kg, read-out: Volume of distribution in steady state-VSSobs
  Vd: 3.38 L/kg
[1]; female, C57/BL6, mouse, bone, IV 3 mg/kg
  Tmax: 0.083 h
[1]; female, C57/BL6, mouse, bone, PO 10 mg/kg, one administration
  Tmax: 3 h
[1]; female, C57/BL6, mouse, liver, IV 3 mg/kg
  Tmax: 0.083 h
[1]; female, C57/BL6, mouse, liver, PO 10 mg/kg, one administration
  Tmax: 1 h
[1]; female, C57/BL6, mouse, plasma, IV 3 mg/kg
  MRT: 3.47 h
[1]; female, C57/BL6, mouse, plasma, PO 10 mg/kg, one administration
  Tmax: 1 h
[1]; liver, IV 3 mg/kg
  AUCInf: 26524 ng·h/g
  AUClast: 26492 ng·h/g
[1]; [4]
  AUCInf: 24170 ng·h/g
  AUClast: 24146 ng·h/g
[1]; liver, PO (QD*3) 10 mg/kg
  AUCInf: 24965 ng·h/g
  AUClast: 24927 ng·h/g
[1]; plasma, IV 3 mg/kg
  AUC_%Extrap: 0.258%
  Cl_obs: 15.6 mL/min/kg
  Vss_obs: 3.38 L/kg
[1]; [5]
  AUC_%Extrap: 1.20%
  F: 24.8%
[1]; plasma, PO (QD*3) 10 mg/kg
  AUC_%Extrap: 0.265%
[2]
  bone volume per tissue volume (BV/TV): small non-significant improvement
  trabecular number (Tb.N): significant increase
  trabecular separation (Tb.Sp): small non-significant improvement
  trabecular thickness (Tb.Th): significant increase
